ChEMBL document CHEMBL1158409, “Discovery of 3,5-disubstituted-1H-pyrrolo[2,3-b]pyridines as potent inhibitors of the insulin-like growth factor-1 receptor (IGF-1R) tyrosine kinase” (Bioorg Med Chem Lett, 2009)

Legend:
[1] = target: T1, Insulin-like growth factor 1 receptor (Homo sapiens, UniProt P08069); experiment: Inhibition of GST-tagged human IGF1R expressed in Sf9-baculovirus system
[2] = target: T1, Insulin-like growth factor 1 receptor; experiment: Inhibition of IGF1-induced human IGF1R phosphorylation expressed in mouse NIH-3T3 cells treated 2 hrs prior to IGF1 challenge by DELFIA
[3] = target: Mitogen-activated protein kinase 10 (Homo sapiens, UniProt P53779); experiment: Inhibition of JNK3
[4] = target: T2, Inhibitor of nuclear factor kappa-B kinase subunit alpha (Homo sapiens, UniProt O15111); experiment: Inhibition of IKK1
T2 sequence (O15111 whole entry): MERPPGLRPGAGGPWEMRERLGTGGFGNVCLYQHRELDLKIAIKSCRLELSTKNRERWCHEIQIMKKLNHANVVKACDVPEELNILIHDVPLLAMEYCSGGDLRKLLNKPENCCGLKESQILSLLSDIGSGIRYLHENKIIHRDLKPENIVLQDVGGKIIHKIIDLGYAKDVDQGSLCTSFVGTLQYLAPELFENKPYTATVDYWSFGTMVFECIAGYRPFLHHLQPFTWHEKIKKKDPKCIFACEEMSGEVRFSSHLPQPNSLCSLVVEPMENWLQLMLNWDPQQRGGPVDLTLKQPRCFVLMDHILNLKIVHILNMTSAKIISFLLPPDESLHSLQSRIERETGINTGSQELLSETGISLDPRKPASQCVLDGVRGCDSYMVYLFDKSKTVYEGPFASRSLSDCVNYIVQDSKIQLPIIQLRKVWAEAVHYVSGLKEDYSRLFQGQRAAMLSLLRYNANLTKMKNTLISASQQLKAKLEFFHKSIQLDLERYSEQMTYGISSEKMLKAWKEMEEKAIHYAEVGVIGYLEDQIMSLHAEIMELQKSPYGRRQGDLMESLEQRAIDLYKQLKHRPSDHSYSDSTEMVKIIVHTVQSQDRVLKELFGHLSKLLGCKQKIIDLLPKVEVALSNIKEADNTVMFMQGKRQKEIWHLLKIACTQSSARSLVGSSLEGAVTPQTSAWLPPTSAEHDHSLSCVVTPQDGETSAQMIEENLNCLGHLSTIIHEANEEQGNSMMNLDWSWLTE

[5] = target: Mitogen-activated protein kinase 8 (Homo sapiens, UniProt P45983); experiment: Inhibition of JNK1
[6] = target: Tyrosine-protein kinase Lyn (Homo sapiens, UniProt P07948); experiment: Inhibition of LYN
[7] = target: T3, Inhibitor of nuclear factor kappa-B kinase subunit beta (Homo sapiens, UniProt O14920); experiment: Inhibition of IKK2
T3 sequence (O14920 whole entry): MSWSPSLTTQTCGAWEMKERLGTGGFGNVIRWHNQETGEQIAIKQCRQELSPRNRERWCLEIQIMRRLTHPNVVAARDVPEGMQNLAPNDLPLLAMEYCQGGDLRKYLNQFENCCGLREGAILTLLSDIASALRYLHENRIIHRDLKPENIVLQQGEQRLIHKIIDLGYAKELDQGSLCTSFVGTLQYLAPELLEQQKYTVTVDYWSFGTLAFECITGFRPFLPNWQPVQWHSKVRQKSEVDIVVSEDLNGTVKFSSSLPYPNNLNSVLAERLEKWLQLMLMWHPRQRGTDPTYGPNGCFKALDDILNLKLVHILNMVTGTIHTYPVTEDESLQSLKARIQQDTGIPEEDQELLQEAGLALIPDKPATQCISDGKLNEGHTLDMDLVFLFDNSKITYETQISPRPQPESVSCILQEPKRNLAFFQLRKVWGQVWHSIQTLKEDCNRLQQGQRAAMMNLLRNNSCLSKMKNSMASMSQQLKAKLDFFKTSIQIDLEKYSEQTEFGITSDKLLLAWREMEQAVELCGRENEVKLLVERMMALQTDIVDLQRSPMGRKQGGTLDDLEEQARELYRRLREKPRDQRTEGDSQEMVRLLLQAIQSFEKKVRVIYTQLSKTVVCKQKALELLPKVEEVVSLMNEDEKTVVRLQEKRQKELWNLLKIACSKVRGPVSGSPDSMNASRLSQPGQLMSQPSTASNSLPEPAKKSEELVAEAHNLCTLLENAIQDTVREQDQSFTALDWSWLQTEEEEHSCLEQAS

[8] = target: Tyrosine-protein kinase SYK (Homo sapiens, UniProt P43405); experiment: Inhibition of SYK

T1 sequence (P08069 31-736 limits assumed): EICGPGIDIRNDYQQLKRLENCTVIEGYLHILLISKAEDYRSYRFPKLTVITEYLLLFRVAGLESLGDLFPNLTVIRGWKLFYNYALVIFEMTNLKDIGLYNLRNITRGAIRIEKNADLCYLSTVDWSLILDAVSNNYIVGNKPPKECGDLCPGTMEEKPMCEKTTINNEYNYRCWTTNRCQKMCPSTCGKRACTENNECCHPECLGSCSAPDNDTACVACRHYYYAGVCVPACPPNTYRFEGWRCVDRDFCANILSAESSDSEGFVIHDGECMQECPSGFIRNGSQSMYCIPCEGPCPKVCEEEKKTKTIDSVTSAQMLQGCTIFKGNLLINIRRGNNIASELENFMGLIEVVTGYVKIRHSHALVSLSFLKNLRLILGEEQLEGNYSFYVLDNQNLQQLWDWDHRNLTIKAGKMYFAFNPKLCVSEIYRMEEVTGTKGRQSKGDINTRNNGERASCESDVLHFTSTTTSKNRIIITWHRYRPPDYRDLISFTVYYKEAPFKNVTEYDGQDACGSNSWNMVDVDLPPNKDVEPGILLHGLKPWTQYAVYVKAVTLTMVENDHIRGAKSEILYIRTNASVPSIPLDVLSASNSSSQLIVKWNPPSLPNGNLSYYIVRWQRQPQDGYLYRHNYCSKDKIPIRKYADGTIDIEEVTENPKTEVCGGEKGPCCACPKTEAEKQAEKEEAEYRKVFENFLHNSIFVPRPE
T1 sequence (P08069 741-1367 limits assumed): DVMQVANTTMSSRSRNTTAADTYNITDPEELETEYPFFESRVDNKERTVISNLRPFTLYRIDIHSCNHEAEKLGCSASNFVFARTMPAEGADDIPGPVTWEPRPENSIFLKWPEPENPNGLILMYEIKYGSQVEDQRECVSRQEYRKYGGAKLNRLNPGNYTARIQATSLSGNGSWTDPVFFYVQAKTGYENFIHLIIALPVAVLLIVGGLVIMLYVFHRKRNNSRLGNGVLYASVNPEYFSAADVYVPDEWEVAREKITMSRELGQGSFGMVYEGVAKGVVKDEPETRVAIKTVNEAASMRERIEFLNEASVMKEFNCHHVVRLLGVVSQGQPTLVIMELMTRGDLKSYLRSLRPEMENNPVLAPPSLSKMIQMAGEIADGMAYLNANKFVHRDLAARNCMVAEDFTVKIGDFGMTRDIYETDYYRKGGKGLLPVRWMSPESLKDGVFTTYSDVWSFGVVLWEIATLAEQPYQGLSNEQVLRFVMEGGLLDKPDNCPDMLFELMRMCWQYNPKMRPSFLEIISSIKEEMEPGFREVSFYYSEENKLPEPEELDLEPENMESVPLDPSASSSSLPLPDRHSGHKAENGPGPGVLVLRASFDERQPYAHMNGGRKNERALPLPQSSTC
Chain of Mitogen-activated protein kinase 8 (P45983 whole entry): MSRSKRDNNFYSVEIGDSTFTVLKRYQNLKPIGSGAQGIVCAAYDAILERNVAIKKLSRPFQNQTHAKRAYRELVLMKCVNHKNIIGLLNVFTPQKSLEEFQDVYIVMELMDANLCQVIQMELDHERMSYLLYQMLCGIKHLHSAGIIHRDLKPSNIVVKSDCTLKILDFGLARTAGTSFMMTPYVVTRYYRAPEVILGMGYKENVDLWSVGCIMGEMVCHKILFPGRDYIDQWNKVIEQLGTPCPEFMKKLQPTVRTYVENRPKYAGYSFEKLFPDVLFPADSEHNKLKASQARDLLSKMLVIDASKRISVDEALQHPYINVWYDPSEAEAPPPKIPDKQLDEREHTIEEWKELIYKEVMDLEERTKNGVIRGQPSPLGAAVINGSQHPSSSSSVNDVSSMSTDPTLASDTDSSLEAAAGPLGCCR
Chain of Tyrosine-protein kinase Lyn (P07948 whole entry): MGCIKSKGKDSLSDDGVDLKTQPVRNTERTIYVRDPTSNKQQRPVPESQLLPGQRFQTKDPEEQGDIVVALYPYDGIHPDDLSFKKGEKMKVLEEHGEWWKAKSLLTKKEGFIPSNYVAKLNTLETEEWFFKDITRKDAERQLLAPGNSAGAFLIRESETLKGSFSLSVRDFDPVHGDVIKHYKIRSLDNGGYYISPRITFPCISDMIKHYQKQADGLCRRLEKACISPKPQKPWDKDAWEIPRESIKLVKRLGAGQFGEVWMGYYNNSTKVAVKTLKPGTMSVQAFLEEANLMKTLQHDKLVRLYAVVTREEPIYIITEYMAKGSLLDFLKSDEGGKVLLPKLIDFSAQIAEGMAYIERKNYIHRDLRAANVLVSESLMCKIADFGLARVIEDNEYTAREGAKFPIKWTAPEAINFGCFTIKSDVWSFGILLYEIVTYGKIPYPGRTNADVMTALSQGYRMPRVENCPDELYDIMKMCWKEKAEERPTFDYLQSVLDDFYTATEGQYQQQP
Chain of Mitogen-activated protein kinase 10 (P53779 whole entry): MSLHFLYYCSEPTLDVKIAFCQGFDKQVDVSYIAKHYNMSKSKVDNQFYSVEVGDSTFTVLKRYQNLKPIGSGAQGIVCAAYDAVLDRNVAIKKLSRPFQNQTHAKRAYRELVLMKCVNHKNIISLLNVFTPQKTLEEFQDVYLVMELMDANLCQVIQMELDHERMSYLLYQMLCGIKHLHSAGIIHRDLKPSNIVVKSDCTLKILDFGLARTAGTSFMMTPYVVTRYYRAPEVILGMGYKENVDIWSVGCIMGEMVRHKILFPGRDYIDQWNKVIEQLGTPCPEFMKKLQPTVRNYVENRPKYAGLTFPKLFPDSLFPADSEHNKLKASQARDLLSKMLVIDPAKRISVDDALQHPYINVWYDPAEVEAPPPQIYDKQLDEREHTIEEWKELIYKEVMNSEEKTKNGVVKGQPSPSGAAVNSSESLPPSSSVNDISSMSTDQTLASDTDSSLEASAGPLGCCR

O=C(Nc1cccc(Cl)c1)Nc1cccc(-c2c[nH]c3ncc(-c4ccccc4)cc23)c1
IC50 [1]: 1.02 µM

O=C(O)CCc1ccc(-c2cnc3[nH]cc(-c4cccc(NC(=O)Nc5ccccc5Oc5ccccc5)c4)c3c2)cc1
IC50 [2]: 3.62 µM
IC50 [1]: 0.21 µM

Nc1ccc(-c2cnc3[nH]cc(-c4cccc(NC(=O)Nc5ccc(C(F)(F)F)cc5F)c4)c3c2)cc1
IC50 [1]: 0.2 µM

CN(C)C(=O)c1ccc(-c2cnc3[nH]cc(-c4cccc(NC(=O)Nc5ccccc5Oc5ccccc5)c4)c3c2)cc1
IC50 [2]: 0.128 µM
IC50 [1]: 0.031 µM

CN(C)S(=O)(=O)c1ccc(-c2cnc3[nH]cc(-c4cccc(NC(=O)Nc5ccccc5Oc5ccccc5)c4)c3c2)cc1
IC50 [2]: 20.8 µM

O=C(Nc1cccc(-c2c[nH]c3ncc(-c4ccccc4)cc23)c1)Nc1ccccc1Oc1ccccc1
IC50 [2]: 0.693 µM
IC50 [1]: 0.127 µM

CN(C)C(=O)c1cccc(-c2cnc3[nH]cc(-c4cccc(NC(=O)Nc5ccccc5Nc5ccccc5)c4)c3c2)c1
IC50 [2]: 0.407 µM
IC50 [1]: 0.039 µM

Nc1cccc(-c2cnc3[nH]cc(-c4cccc(NC(=O)Nc5ccc(C(F)(F)F)cc5F)c4)c3c2)c1
IC50 [1]: 0.242 µM

CN(C)CCNC(=O)c1cccc(-c2cnc3[nH]cc(-c4cccc(NC(=O)Nc5ccccc5Oc5ccccc5)c4)c3c2)c1
IC50 [1]: 0.004 µM

COc1ccc(-c2cnc3[nH]cc(-c4cccc(NC(=O)Nc5ccc(C(F)(F)F)cc5F)c4)c3c2)cc1OC
IC50 [1]: 2.2 µM

CN1CCN(C(=O)c2ccc(-c3cnc4[nH]cc(-c5cccc(NC(=O)Nc6ccc(C(F)(F)F)cc6F)c5)c4c3)cc2)CC1
IC50 [1]: 0.286 µM

NCc1ccc(-c2cnc3[nH]cc(-c4cccc(NC(=O)Nc5ccc(C(F)(F)F)cc5F)c4)c3c2)cc1
IC50 [1]: 0.05 µM
IC50 [3]: 0.25 µM
IC50 [4]: 0.032 µM
IC50 [5]: 0.079 µM
IC50 [6]: 0.04 µM
IC50 [7]: 0.079 µM
IC50 [8]: 0.08 µM

CN(C)S(=O)(=O)c1cccc(-c2cnc3[nH]cc(-c4cccc(NC(=O)Nc5ccccc5Oc5ccccc5)c4)c3c2)c1
IC50 [2]: 1.12 µM
IC50 [1]: 0.057 µM

CN(C)CCNC(=O)c1ccc(-c2cnc3[nH]cc(-c4cccc(NC(=O)Nc5ccccc5Oc5ccccc5)c4)c3c2)cc1
IC50 [2]: 0.415 µM
IC50 [1]: 0.004 µM

CN(C)CCNC(=O)c1cccc(-c2cnc3[nH]cc(-c4cccc(NC(=O)Nc5ccc(C(F)(F)F)cc5F)c4)c3c2)c1
IC50 [1]: 0.067 µM

O=C(Nc1ccccc1)Nc1cccc(-c2c[nH]c3ncc(-c4ccccc4)cc23)c1
IC50 [1]: 0.749 µM

CN1CCN(C(=O)c2cccc(-c3cnc4[nH]cc(-c5cccc(NC(=O)Nc6ccc(C(F)(F)F)cc6F)c5)c4c3)c2)CC1
IC50 [1]: 0.335 µM

O=C(Nc1cccc(-c2c[nH]c3ncc(-c4ccoc4)cc23)c1)Nc1ccccc1Oc1ccccc1
IC50 [2]: 1.26 µM
IC50 [1]: 0.251 µM

CN(C)C(=O)c1cccc(-c2cnc3[nH]cc(-c4cccc(NC(=O)Nc5ccccc5OCc5ccccc5)c4)c3c2)c1
IC50 [2]: 0.517 µM
IC50 [1]: 0.132 µM

CN(C)CCNC(=O)c1ccc(-c2cnc3[nH]cc(-c4cccc(NC(=O)Nc5ccc(C(F)(F)F)cc5F)c4)c3c2)cc1
IC50 [1]: 0.036 µM

O=C(Nc1cccc(-c2c[nH]c3ncc(-c4cccc(C(=O)O)c4)cc23)c1)Nc1ccccc1Oc1ccccc1
IC50 [2]: 1.04 µM
IC50 [1]: 0.184 µM

NCc1ccc(-c2cnc3[nH]cc(-c4cccc(NC(=O)Nc5cccc(Cl)c5)c4)c3c2)cc1
IC50 [1]: 0.02 µM

CN(C)C(=O)c1cccc(-c2cnc3[nH]cc(-c4cccc(NC(=O)Nc5ccccc5Oc5ccccc5)c4)c3c2)c1
IC50 [2]: 0.068 µM
IC50 [1]: 0.021 µM

O=C(Nc1cccc(-c2c[nH]c3ncc(-c4ccccc4)cc23)c1)Nc1ccc(C(F)(F)F)cc1F
IC50 [1]: 1.26 µM

CN(C)C(=O)c1cccc(-c2cnc3[nH]cc(-c4cccc(NC(=O)Nc5ccc(Oc6ccccc6)cc5)c4)c3c2)c1
IC50 [2]: 3.07 µM
IC50 [1]: 2.04 µM

CN(C)C(=O)c1cccc(-c2cnc3[nH]cc(-c4cccc(NC(=O)Nc5cccc(Oc6ccccc6)c5)c4)c3c2)c1
IC50 [2]: 0.961 µM
IC50 [1]: 0.212 µM

O=C(Nc1cccc(-c2c[nH]c3ncc(-c4cccc(F)c4)cc23)c1)Nc1ccc(C(F)(F)F)cc1F
IC50 [1]: 0.605 µM
